This note sets out measurements from US20200369667A1, “HETEROCYCLIC COMPOUNDS AS PRMT5 INHIBITORS” (ANGEX PHARMACEUTICAL, INC., priority 2017, published 2020).

The target of the assay is PRMT5:MEP50 (Homo sapiens, UniProt O14744). In words: PRMT5:MEP50 Flashplate Assay. The assay is classed as biochemical. The settings on record: PRMT5:MEP50 inhibitory activity, 3H-SAM FlashPlate, class symbol. Here is the method:
Ten-point curves of inhibitor compounds were made using serial threefold dilutions in DMSO (the final top concentration of compound was 10 μM, 1% DMSO). Reaction mixture consisting of 50 mM Tris-HCl (pH 8.5), 0.002% Tween20, 0.005% BSA (Bovine Serum Albumin), 1 mM TCEP, and 1% DMSO. Substrates are freshly prepared in reaction buffer. PRMT5:MEP50 was then added into substrate solution and mixed gently. Inhibitor compound was then added and incubated for 30 min at room temperature. ^3H-SAM was added to initiate the reaction. Reactions were incubated for 2 h at room temperature and quenched with 0.5 mM SAM (S-adenosyl-L-Methionine) in assay buffer. An aliquot of the reaction mix was transferred to a streptavidin-coated 384-well FlashPlate (PerkinElmer). After an incubation time of 1 h, the plate was washed and then read on a TopCount (PerkinElmer) to measure the amount of tritium incorporated into the peptide substrate. IC50 was calculated using conventional curve-fitting method.

The structures appear in SMILES notation. Bounds are passed on as bounds.

Sequence of PRMT5:MEP50 (O14744 whole entry, species assumed): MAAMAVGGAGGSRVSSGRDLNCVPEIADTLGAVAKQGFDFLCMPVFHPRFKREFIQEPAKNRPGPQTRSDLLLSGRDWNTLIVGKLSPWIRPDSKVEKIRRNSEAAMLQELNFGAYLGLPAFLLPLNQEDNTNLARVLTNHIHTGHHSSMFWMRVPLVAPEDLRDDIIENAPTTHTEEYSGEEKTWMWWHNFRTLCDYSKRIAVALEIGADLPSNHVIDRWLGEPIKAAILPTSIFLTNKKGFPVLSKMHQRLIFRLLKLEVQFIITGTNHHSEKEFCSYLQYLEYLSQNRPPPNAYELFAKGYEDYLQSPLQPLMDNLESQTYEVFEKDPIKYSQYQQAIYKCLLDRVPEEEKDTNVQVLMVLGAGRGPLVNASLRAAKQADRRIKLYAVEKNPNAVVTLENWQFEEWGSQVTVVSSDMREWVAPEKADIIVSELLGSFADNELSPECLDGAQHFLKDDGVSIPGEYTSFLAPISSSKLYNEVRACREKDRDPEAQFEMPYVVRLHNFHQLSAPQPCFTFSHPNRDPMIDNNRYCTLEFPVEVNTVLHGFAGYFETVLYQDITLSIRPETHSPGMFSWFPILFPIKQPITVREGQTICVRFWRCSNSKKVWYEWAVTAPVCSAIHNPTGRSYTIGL
Sequence of PRMT5:MEP50 (Q9BQA1 whole entry partner, species assumed): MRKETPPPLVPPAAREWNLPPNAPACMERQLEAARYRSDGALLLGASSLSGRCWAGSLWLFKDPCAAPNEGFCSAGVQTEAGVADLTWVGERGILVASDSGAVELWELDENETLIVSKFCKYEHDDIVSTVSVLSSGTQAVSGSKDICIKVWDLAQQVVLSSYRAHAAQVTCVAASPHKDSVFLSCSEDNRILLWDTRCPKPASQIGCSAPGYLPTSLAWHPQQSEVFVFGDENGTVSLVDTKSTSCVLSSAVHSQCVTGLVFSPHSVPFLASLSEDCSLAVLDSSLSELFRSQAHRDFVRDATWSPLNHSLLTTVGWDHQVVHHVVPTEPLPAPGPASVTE

A word on the IC50: it is the concentration that gives 50% inhibition. Low values mean inhibition by little substance, high ones a need for much substance. For `C[C@@H]1CNc2nc3cc(CC[C@H]4C[C@@H](n5ccc6c(N)ncnc65)[C@H](O)[C@@H]4O)ccc3cc2O1` [Compound 1-10], the IC50 was less than 1 nM.
The result for `CC1(C)Oc2ccc(CC[C@H]3C[C@@H](n4ccc5c(N)ncnc54)[C@H](O)[C@@H]3O)cc2N=C1N` [Compound 1-16] reads less than 1 nM.
The value for `CN1C(N)=Nc2cc(CC[C@H]3C[C@@H](n4ccc5c(N)ncnc54)[C@H](O)[C@@H]3O)ccc2S1(=O)=O` [Compound 1-14] was less than 1 nM.
The value for `CC1(C)C(N)=Nc2cc(CC[C@H]3O[C@@H](n4ccc5c(N)ncnc54)[C@H](O)[C@@H]3O)ccc2S1(=O)=O` [Compound 2-11] was 1 to 100 nM; that for `Nc1ncnc2c1ccn2[C@@H]1C[C@H](CCc2ccc3cc4c(nc3c2)NC(=O)CS4)[C@@H](O)[C@H]1O` [Compound 4-3] was less than 1 nM; that for `CC1(C)C(N)=Nc2cc(CC[C@H]3C[C@@H](n4ccc5c(N)ncnc54)[C@H](O)[C@@H]3O)ccc2S1(=O)=O` [Compound 1-15] was 1 to 100 nM.
As to `CC1(C)Oc2ccc(CC[C@H]3O[C@@H](n4ccc5c(N)ncnc54)[C@H](O)[C@@H]3O)cc2N=C1N` [Compound 2-12], the IC50 is less than 1 nM.
The result for `C[C@H]1CNc2nc3cc(CC[C@H]4O[C@@H](n5ccc6c(N)ncnc65)[C@H](O)[C@@H]4O)ccc3cc2O1` [Compound 2-10] reads 1 to 100 nM; that for `Nc1ncnc2c1ccn2[C@@H]1C[C@H](CCc2ccc3c(=O)n(C4CC4)c(N)nc3c2)[C@@H](O)[C@H]1O` [Compound 1-17], less than 1 nM.
As for `CC1(C)Cn2c(nc3cc(CC[C@H]4C[C@@H](n5ccc6c(N)ncnc65)[C@H](O)[C@@H]4O)ccc3c2=O)N1` [Compound 1-18], the IC50 is 1 to 100 nM.
The value for `C[C@@H]1COc2cc3ccc(CC[C@H]4C[C@@H](n5ccc6c(N)ncnc65)[C@H](O)[C@@H]4O)cc3nc2N1` [Compound 1-9] was less than 1 nM.
`Nc1ncnc2c1ccn2[C@@H]1C[C@H](CCc2ccc3cc4c(nc3c2)NCCS4)[C@@H](O)[C@H]1O` [Compound 1-13] registered an IC50 of less than 1 nM.
The value for `C[C@H]1CNc2nc3cc(CC[C@H]4C[C@@H](n5ccc6c(N)ncnc65)[C@H](O)[C@@H]4O)ccc3cc2O1` [Compound 1-11] was less than 1 nM.
Compound `C[C@@H]1CNc2nc3cc(CC[C@H]4O[C@@H](n5ccc6c(N)ncnc65)[C@H](O)[C@@H]4O)ccc3cc2O1` [Compound 2-9] registered an IC50 of 1 to 100 nM.
The result for `CN1C(N)=Nc2cc(CC[C@H]3O[C@@H](n4ccc5c(N)ncnc54)[C@H](O)[C@@H]3O)ccc2S1(=O)=O` [Compound 2-8] reads 1 to 100 nM; that for `C[C@H]1COc2cc3ccc(CC[C@H]4C[C@@H](n5ccc6c(N)ncnc65)[C@H](O)[C@@H]4O)cc3nc2N1` [Compound 1-8, (1R,2S,3R,5S)-3-(4-amino-7H-pyrrolo[2,3-d]pyrimidine-7-yl)-5-(2-((S)-3-methyl-3,4-dihydro-2H-[1,4]oxazino[3,2-b]quinoline-7-yl)ethyl)cyclopentane-1,2-diol], less than 1 nM; that for `Nc1nc2cc(CCC[C@H]3C[C@@H](n4ccc5c(N)ncnc54)[C@H](O)[C@@H]3O)ccc2cc1Br` [Compound 3-7], 1 to 100 nM.
The value for `Cn1c(N)nc2cc(CC[C@H]3C[C@@H](n4ccc5c(N)ncnc54)[C@H](O)[C@@H]3O)ccc2c1=O` [Compound 1-7, 2-amino-7-(2-((1S,2R,3S,4R)-4-(4-amino-7H-pyrrolo[2,3-d]pyrimidin-7-yl)-2,3-dihydroxycyclopentyl)ethyl)-3-methylquinazolin-4(3H)-one] was less than 1 nM; that for `Nc1ncnc2c1ccn2[C@@H]1C[C@H](CCc2ccc3cc4c(nc3c2)NC(=O)CO4)[C@@H](O)[C@H]1O` [Compound 1-12] was less than 1 nM.
